Assay results taken from patent US7038049B2, “Haloanilino quinazolines and therapeutic use thereof” (Parker Hughes Institute, priority 1999, dated 2006).

Assays:
[1] = test system: BT20 human breast cancer cells; experiment: MTT cytotoxicity assay, BT20; assay type: cell-based; conditions: Homo sapiens
Experimental: (§1) The cytotoxicity assay of various compounds against human tumor cell lines was performed using the MTT (3-[4,5-dimethylthiazol-2-yl]-2,5-diphenyl tetrazolium bromide) assay (Boehringer Mannheim Corp., Indianapolis, Ind.). Briefly, exponentially growing tumor cells were seeded into a 96-well plate at a density of 2.5×10^4 cells/well and incubated for 36 hours at 37° C. prior to drug exposure. On the day of treatment, culture medium was carefully aspirated from the wells and replaced with fresh medium containing the quinazoline compounds at concentrations ranging from 0.1 to 250 μM. Triplicate wells were used for each treatment.
(§2) Human cell lines were obtained from American Type Culture Collection (Rockville, Md.) and maintained as a continuous cell line in Dulbecco's modified Eagles' medium supplemented with 10% fetal bovine serum and antibiotics. Cells used in this study include human leukemia cells (NALM-6 and MOLT-3), human breast cancer cells ([…]), human prostate cancer cells (PC3), and human brain tumor cells (U373).
(§3) The cells were incubated with the various compounds for 24–36 hours at 37° C. in a humidified 5% CO2 atmosphere. To each well, 10 μl of MTT (0.5 mg/ml final concentration) was added and the plates were incubated at 37° C. for 4 hours to allow MTT to form formazan crystals by reacting with metabolically active cells. The formazan crystals were solubilized overnight at 37° C. in a solution containing 10% SDS in 0.01 M HCl. The absorbance of each well was measured in a microplate reader (Labsystems) at 540 nm and a reference wavelength of 690 nm. To translate the OD 540 values into the number of live cells in each well, the OD 540 values were compared to those on standard OD 540—versus—cell number curves generated for each cell line. The percent survival was calculated using the formula:
(§4) [formula] The IC50 values were calculated by non-linear regression analysis. Detection of Apoptosis

[2] = test system: NALM-6 human leukemia cells; experiment: MTT cytotoxicity assay, NALM-6; assay type: cell-based; conditions: Homo sapiens
Experimental: as §1, §2, §3, §4

[3] = test system: MOLT-3 human leukemia cells; experiment: MTT cytotoxicity assay, MOLT-3; assay type: cell-based; conditions: Homo sapiens
Experimental: as §1, §2, §3, §4

[4] = test system: PC3 human prostate cancer cells; experiment: MTT cytotoxicity assay, PC3; assay type: cell-based; conditions: Table 5, fluoro-substituted, value ± spread
Experimental: as §1, §2, §3, §4

[5] = test system: U373 human brain tumor cells; experiment: MTT cytotoxicity assay, U373; assay type: cell-based; conditions: Homo sapiens, U373 MG, Table 5, fluoro-substituted, value ± spread
Experimental: as §1, §2, §3, §4

PC3 cells = experiment: TUNEL apoptosis assay, PC3; assay type: cell-based, human; conditions: 24 hours incubation, FIG. 3
Experimental: Exponentially growing cells were seeded in 6-well tissue culture plates at a density of 50×10^4 cells/well and cultured for 36 hours at 37° C. in a humidified 5% CO2 atmosphere. The supernatant culture medium was carefully aspirated and replaced with fresh medium containing unconjugated EGF or EGF-P154 at a concentration of 10, 25, or 50 μg/ml. After a 36 hour incubation at 37° C. in a humidified 5% CO2 incubator, the supernatants were carefully aspirated and the cells were treated for 1–2 minutes with 0.1% trypsin. The detached cells were collected into a 15 ml centrifuge tube, washed with medium and pelleted by centrifugation at 1000 rpm for 5 minutes. Cells were resuspended in 50 μl of PBS, transferred to poly-L-lysine coated coverslips and allowed to attach for 15 minutes. The cells were washed once with PBS and incubated with equilibration buffer for 10 minutes at room temperature. […]
The cells were incubated with HI-P353 or HI-P219 for 24 hours, fixed, permeabilized, and visualized for DNA degradation in a TUNEL assay using digoxigenin-UTP-labeling kit. In the color photographs, red fluorescence represents nuclei stained with propidium iodide. […]

[6] = BT-20, Table 5, fluoro-substituted, value ± spread
[7] = NALM-6, Table 5, fluoro-substituted, value ± spread
[8] = MOLT-3, Table 5, fluoro-substituted, value ± spread

SMILES: COc1cc2ncnc(Nc3ccc(O)c(F)c3)c2cc1OC [HI-P369, 4-(4′-Hydroxyl-3′-fluorophenyl)-amino-6,7-dimethoxyquinazoline]
- IC50 [1, 6]: > 250 µM
- IC50 [2, 7]: > 250 µM
- IC50 [3, 8]: > 250 µM
- IC50 [4]: > 250 µM
- IC50 [5]: > 250 µM

SMILES: COc1cc2ncnc(Nc3ccc(F)cc3)c2cc1OC [HI-P221, 4-(4′-Fluorophenyl)-amino-6,7-dimethoxyquinazoline]
- IC50 [1, 6]: 30.7 ± 7.9 µM
- IC50 [2, 7]: 100 ± 4.8 µM
- IC50 [3, 8]: 98.7 ± 3.8 µM
- IC50 [4]: > 250 µM
- IC50 [5]: 28.8 ± 12.7 µM

SMILES: COc1cc2ncnc(Nc3ccccc3F)c2cc1OC [HI-P264, 4-(2′-Fluorophenyl)-amino-6,7-dimethoxyquinazoline]
- IC50 [1, 6]: 33.3 ± 7.5 µM
- IC50 [2, 7]: 47 ± 19.5 µM
- IC50 [3, 8]: 70.9 ± 17.3 µM
- IC50 [4]: > 250 µM
- IC50 [5]: 53.3 ± 6.7 µM

SMILES: COc1cc2ncnc(Nc3ccc(C(c4ccc(N)cc4)(C(F)(F)F)C(F)(F)F)cc3)c2cc1OC [HI-P352, 4-{4′-[2″-(4′′′-Aminophenyl)-hexafluoropropyl]phenyl}amino-6,7-dimethoxyquinazoline]
- IC50 [1, 6]: 50.3 ± 14.8 µM
- IC50 [2, 7]: 7.1 ± 1.8 µM
- IC50 [3, 8]: 21.8 ± 1.7 µM
- IC50 [4]: 72.6 ± 2.5 µM
- IC50 [5]: 65.5 ± 11.2 µM

SMILES: COc1cc2ncnc(Nc3cccc(OC(F)(F)F)c3)c2cc1OC [HI-P364, 4-(3′-Trifluoromethoxylphenyl)-amino-6,7-dimethoxyquinazoline]
- IC50 [1, 6]: 40.1 ± 8.6 µM
- IC50 [2, 7]: 7.9 ± 1.9 µM
- IC50 [3, 8]: 25.3 ± 9.1 µM
- IC50 [4]: > 250 µM
- IC50 [5]: 27.7 ± 1.2 µM

SMILES: COc1cc2ncnc(Nc3cccc(C(F)(F)F)c3)c2cc1OC [HI-P218, 4-(3′-Trifluoromethylphenyl)-amino-6,7-dimethoxyquinazo-line]
- IC50 [1, 6]: 37.6 ± 5.2 µM
- IC50 [2, 7]: 37 ± 5.8 µM
- IC50 [3, 8]: 33.2 ± 3.3 µM
- IC50 [4]: 126 ± 5.8 µM
- IC50 [5]: 29.9 ± 7.3 µM

SMILES: COc1cc2ncnc(Nc3ccc(OC(F)(F)F)cc3)c2cc1OC [HI-P219, 4-(4′-Trifluoromethoxylphenyl)-amino-6,7-dimethoxyqui-nazoline]
- IC50 [1, 6]: 44.2 ± 10.9 µM
- IC50 [2, 7]: 22.3 ± 3 µM
- IC50 [3, 8]: 41.3 ± 4.4 µM
- Induction of apoptosis (TUNEL) (PC3 cells): Apoptosis was induced
- IC50 [4]: 58.3 ± 3.2 µM
- IC50 [5]: 83.6 ± 6.5 µM

SMILES: COc1cc2ncnc(Nc3ccccc3C(F)(F)F)c2cc1OC [HI-P228, 4-(2′-Trifluoromethylphenyl)-amino-6,7-dimethoxyquinazoline]
- IC50 [1, 6]: > 250 µM
- IC50 [2, 7]: 57.3 ± 24.8 µM
- IC50 [3, 8]: 237 ± 4.8 µM
- IC50 [4]: > 250 µM
- IC50 [5]: > 250 µM

SMILES: COc1cc2ncnc(Nc3ccc(C(c4cccc(N)c4)(C(F)(F)F)C(F)(F)F)cc3)c2cc1OC [HI-P353]
- IC50 [1, 6]: 14.1 ± 3.3 µM
- IC50 [2, 7]: 6.1 ± 1.4 µM
- IC50 [3, 8]: 17.4 ± 1.5 µM
- IC50 [4]: 64.9 ± 11.9 µM
- IC50 [5]: 14.5 ± 7.6 µM

SMILES: COc1cc2ncnc(Nc3ccccc3OC(F)(F)F)c2cc1OC [HI-P365, 4-(2′-Trifluoromethoxylphenyl)-amino-6,7-dimethoxyquinazoline]
- IC50 [1, 6]: > 250 µM
- IC50 [2, 7]: 86.5 ± 3.4 µM
- IC50 [3, 8]: 111 ± 7.5 µM
- IC50 [4]: > 250 µM
- IC50 [5]: > 250 µM

SMILES: COc1cc2ncnc(Nc3ccc(S(=O)(=O)F)cc3)c2cc1OC [HI-P232, 4-[4′-benzenesulfanilylfluoride]-amino-6,7-dimethoxyquinazoline]
- IC50 [1, 6]: 70.5 ± 8.2 µM
- IC50 [2, 7]: 41.4 ± 6.9 µM
- IC50 [3, 8]: 43.6 ± 2.3 µM
- IC50 [4]: 88.9 ± 17.2 µM
- IC50 [5]: 208 ± 18.1 µM

SMILES: COc1cc2ncnc(Nc3cc(C(F)(F)F)cc(C(F)(F)F)c3)c2cc1OC [HI-P366, 4-(3′,5′-Ditrifluoromethylphenyl)-amno-6,7-dimethoxyquinazoline]
- IC50 [1, 6]: 61.7 ± 12.1 µM
- IC50 [2, 7]: 52.8 ± 14 µM
- IC50 [3, 8]: 137 ± 10.3 µM
- IC50 [4]: > 250 µM
- IC50 [5]: 55.5 ± 13.2 µM

SMILES: COc1cc2ncnc(Nc3ccc(C(F)(F)F)cc3)c2cc1OC [HI-P223, 4-(4′-Trifluoromethylphenyl)-amino-6,7-dimethoxyquinazoline]
- IC50 [1, 6]: 27.6 ± 8.6 µM
- IC50 [2, 7]: 39.5 ± 8 µM
- IC50 [3, 8]: 40.8 ± 15.1 µM
- IC50 [4]: > 250 µM
- IC50 [5]: 32.1 ± 3.9 µM

SMILES: COc1cc2ncnc(Nc3cccc(F)c3)c2cc1OC [HI-P224, 4-(3′-fluorophenyl)amino-6,7-dimethoxyquinazoline]
- IC50 [1, 6]: 58.3 ± 5.8 µM
- IC50 [2, 7]: 20.2 ± 8.1 µM
- IC50 [3, 8]: 23.3 ± 7.7 µM
- IC50 [4]: > 250 µM
- IC50 [5]: 22.4 ± 5.9 µM

SMILES: COc1cc2ncnc(Nc3cc(F)c(O)c(F)c3)c2cc1OC [HI-P408, 4-(4′-Hydroxyl-3′,5′-difluorophenyl)-amino6,7-dimethoxy-quinazoline]
- IC50 [1, 6]: > 250 µM
- IC50 [2, 7]: 116 ± 17.8 µM
- IC50 [3, 8]: 228 ± 20.8 µM
- IC50 [4]: > 250 µM
- IC50 [5]: > 250 µM

SMILES: COc1cc2ncnc(Nc3c(F)c(F)c(Br)c(F)c3F)c2cc1OC [HI-P144, 4-(2′,3′,5′,6′-tetrafluoro-4′-bromophenyl)amino-6,7-dimethoxyquinazoline]
- IC50 [1, 6]: 63.4 ± 5.5 µM
- IC50 [2, 7]: 28.1 ± 2.6 µM
- IC50 [3, 8]: 24.9 ± 3.7 µM
- IC50 [4]: > 250 µM
- IC50 [5]: 49.5 ± 11.3 µM

SMILES: COc1cc2ncnc(Nc3ccc(Br)cc3F)c2cc1OC [HI-P214, 4-(2′-Fluoro-4′-bromophenyl)-amino-6,7-dimethoxyquinazoline]
- IC50 ([1]; BT-20, Table 1, bromo substituted, 24–36 hours): > 250 µM
- IC50 [1, 6]: > 250 µM
- IC50 ([2]; NALM-6, Table 1, bromo substituted, 24–36 hours): > 250 µM
- IC50 [2, 7]: > 250 µM
- IC50 ([3]; MOLT-3, Table 1, bromo substituted, 24–36 hours): > 250 µM
- IC50 [3, 8]: > 250 µM
- IC50 [4]: > 250 µM
- IC50 [5]: > 250 µM
